Values quoted from earlier work as cited in patent US20050008656A1, “Compositions and methods for an orally administered inhibitor of biting insects” (priority 2003, published 2005).
Blank lines part the entries; values can stand above or below the molecule they belong to.

Key:
[1] = in vivo
[2] = system: biting insects; conditions: ingested
[3] = in vivo; remark: listed apart in the source

Molecule: O=C(O)CCCC[C@@H]1SC[C@@H]2NC(=O)N[C@@H]21 [Biotin]
toxicity (in words) [1]: No toxic levels are known

Molecule: CCN(CC)C(=O)c1cccc(C)c1 [DEET, N, N-diethyl-3-methylbenzamide, reference compound]
toxicity (in words) [1]: toxicity, including encephalopathy and seizures

dose above which flushing by dilating the blood vessels occurs [1]: > 200 mg
Molecule: O=C(O)c1cccnc1 [Nicotinic acid]

Molecule: CC1CCC(C(C)(C)O)C(O)C1 (stereo not shown) [PMD, p-menthane-3,8-diol, reference compound]
eye irritation [1]: significant eye irritation

Molecule: C/C=C/C=C/C(=O)O [Sorbic acid]
toxicity (in words) [1]: non-toxic even when taken in large quantities

Molecule: Cc1ncc(CO)c(CO)c1O [Vitamin B6, Pyridoxine]
dosage above which neurological damage may be caused [1]: > 2,000 mg per day

Molecule: C[N+](C)(C)CCO [choline]
maximum level set for safety [1]: 3.5 g/day

Molecule: O[C@H]1[C@H](O)[C@@H](O)[C@H](O)[C@@H](O)[C@H]1O [inositol]
toxicity (in words) [1]: No toxic effects known

Molecule: Cc1ncc(C[n+]2csc(CCO)c2C)c(N)n1 [thiamine]
effectiveness at inhibiting insects from biting [2]: not effective

Molecule: Cyanocobalamin [B12]
time needed to be absorbed [3]: ~3 h
